Source: ChEMBL document CHEMBL4354805, “Discovery of MK-8719, a Potent O-GlcNAcase Inhibitor as a Potential Treatment for Tauopathies” (J Med Chem, 2019)

Assays:
Protein O-GlcNAcase [1] = molecular target: T1, Protein O-GlcNAcase (Homo sapiens, UniProt O60502); test: Inhibition of recombinant human OGA
T1 sequence (O60502 whole entry): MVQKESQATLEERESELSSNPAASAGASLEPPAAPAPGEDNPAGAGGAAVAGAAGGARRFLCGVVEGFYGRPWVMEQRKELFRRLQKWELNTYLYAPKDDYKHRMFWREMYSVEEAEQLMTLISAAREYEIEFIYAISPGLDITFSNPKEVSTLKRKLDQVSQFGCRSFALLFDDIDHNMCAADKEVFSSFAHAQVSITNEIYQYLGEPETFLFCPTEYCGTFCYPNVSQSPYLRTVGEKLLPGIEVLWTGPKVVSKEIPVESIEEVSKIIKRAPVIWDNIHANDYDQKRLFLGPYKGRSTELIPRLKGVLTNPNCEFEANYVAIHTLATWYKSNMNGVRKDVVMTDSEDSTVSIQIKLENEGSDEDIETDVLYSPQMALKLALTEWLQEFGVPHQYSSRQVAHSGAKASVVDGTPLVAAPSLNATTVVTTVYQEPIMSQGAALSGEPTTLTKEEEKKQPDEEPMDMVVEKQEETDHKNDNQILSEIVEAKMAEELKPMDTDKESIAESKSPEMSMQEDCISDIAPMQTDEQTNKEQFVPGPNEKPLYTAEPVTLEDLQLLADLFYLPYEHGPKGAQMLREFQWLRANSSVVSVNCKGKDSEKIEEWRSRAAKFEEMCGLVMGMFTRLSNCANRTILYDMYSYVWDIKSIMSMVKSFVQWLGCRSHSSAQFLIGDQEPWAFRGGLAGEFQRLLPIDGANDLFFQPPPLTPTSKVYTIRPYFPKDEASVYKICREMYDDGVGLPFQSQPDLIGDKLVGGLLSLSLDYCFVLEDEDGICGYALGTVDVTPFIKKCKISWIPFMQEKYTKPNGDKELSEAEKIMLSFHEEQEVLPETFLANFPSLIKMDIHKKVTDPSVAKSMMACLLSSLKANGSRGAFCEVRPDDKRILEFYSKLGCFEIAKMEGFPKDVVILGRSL

[2] = molecular target: T2, Beta-hexosaminidase subunit beta (Homo sapiens, UniProt P07686); test: Inhibition of human beta hexosaminidase assessed as inhibitory constant using 4-methylumbelliferyl N-acetyl-beta-D-glucosaminide dihydrate as substrate measured every 60 sec for 45 mins by fluorescence spectrophotometry
T2 sequence (P07686 whole entry): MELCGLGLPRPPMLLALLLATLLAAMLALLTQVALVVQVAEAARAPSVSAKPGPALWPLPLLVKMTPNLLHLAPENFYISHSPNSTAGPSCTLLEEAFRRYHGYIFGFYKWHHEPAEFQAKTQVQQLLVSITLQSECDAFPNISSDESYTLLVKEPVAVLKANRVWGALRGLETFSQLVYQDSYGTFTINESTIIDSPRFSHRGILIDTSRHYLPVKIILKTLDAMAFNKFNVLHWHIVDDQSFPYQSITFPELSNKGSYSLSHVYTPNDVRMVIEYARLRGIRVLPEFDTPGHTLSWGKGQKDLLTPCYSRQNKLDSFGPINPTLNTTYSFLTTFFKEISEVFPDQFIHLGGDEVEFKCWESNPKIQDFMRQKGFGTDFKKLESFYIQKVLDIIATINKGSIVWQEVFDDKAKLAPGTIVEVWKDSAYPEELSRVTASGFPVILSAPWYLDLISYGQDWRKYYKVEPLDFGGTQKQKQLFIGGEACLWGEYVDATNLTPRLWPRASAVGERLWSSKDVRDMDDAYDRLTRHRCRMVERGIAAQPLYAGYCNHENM

[3] = molecular target: Voltage-gated inwardly rectifying potassium channel KCNH2 (Homo sapiens, UniProt Q12809); test: Displacement of MK-0499 from human ERG
[4] = molecular target: Sodium channel protein type 5 subunit alpha (Homo sapiens, UniProt Q14524); test: Inhibition of Nav1.5 (unknown origin)
[5] = molecular target: Voltage-dependent L-type calcium channel subunit alpha-1C (Homo sapiens, UniProt Q13936); test: Inhibition of Cav1.2 (unknown origin)
Cytochrome P450 3A4 = Cytochrome P450 3A4 (Homo sapiens, UniProt P08684); test: Inhibition of CYP3A4 (unknown origin); type: ADME
Cytochrome P450 2D6 = Cytochrome P450 2D6 (Homo sapiens, UniProt P10635); test: Inhibition of CYP2D6 (unknown origin); type: ADME
Cytochrome P450 2C9 = Cytochrome P450 2C9 (Homo sapiens, UniProt P11712); test: Inhibition of CYP2C9 (unknown origin); type: ADME
[6] = molecular target: T3, Nuclear receptor subfamily 1 group I member 2 (Homo sapiens, UniProt O75469); test: Activation of PXR (unknown origin) assessed as CYP3A4 induction
T3 sequence (O75469 whole entry): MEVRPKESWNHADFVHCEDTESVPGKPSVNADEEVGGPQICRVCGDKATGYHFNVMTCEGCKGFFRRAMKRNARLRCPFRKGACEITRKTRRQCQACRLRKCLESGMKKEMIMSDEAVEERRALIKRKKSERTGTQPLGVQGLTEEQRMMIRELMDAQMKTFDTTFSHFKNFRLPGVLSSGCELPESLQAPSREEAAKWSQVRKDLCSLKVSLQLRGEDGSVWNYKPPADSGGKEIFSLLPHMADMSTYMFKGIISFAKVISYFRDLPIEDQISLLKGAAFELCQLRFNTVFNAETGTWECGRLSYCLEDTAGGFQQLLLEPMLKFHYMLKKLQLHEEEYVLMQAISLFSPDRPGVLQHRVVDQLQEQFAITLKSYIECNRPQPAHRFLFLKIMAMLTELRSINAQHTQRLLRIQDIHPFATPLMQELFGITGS

MDR1 = test: Apparent permeability in pig LLC-PK1 cells transfected with MDR1; type: ADME, cell-based, Sus scrofa
Protein O-GlcNAcase [7] = molecular target: T4, Protein O-GlcNAcase (Rattus norvegicus, UniProt Q8VIJ5); test: Inhibition of OGA in rat PC12 cells assessed as OGlcNAcylated protein level incubated for 24 hrs by ELISA; type: cell-based
T4 sequence (Q8VIJ5 whole entry): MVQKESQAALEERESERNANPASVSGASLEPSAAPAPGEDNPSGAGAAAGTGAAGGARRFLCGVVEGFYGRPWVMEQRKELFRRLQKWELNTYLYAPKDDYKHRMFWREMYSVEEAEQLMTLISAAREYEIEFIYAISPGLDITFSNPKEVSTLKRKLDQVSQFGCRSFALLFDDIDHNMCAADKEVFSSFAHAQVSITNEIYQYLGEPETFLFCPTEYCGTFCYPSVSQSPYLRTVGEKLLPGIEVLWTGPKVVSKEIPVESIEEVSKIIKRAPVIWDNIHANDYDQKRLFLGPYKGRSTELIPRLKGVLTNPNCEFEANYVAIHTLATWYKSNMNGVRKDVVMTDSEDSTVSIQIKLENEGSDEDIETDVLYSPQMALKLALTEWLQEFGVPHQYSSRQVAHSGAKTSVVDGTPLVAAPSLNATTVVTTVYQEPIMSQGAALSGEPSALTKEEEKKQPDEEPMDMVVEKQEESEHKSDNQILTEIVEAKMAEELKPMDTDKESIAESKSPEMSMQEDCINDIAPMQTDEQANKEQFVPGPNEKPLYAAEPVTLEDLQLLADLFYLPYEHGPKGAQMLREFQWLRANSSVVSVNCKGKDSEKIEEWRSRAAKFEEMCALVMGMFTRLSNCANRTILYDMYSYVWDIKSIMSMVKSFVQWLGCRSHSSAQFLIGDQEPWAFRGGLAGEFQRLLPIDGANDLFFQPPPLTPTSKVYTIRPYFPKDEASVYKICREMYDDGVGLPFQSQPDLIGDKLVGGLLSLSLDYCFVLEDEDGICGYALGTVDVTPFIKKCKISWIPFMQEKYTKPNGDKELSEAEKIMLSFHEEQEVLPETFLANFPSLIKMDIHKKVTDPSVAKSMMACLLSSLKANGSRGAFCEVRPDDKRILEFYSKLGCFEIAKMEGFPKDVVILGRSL

[8] = AUCN in Wistar Han rat at 3 mg/kg, po; type: ADME, organism-based; conditions: in vivo
[9] = Clearance in Wistar Han rat at 2 mg/kg, iv; type: ADME, organism-based; conditions: in vivo
[10] = Half life in Wistar Han rat at 2 mg/kg, iv; type: ADME, organism-based; conditions: in vivo
[11] = Volume of distribution at steady state in Wistar Han rat at 2 mg/kg, iv or 3 mg/kg, po; type: ADME, organism-based; conditions: in vivo, read-out: Vdss
[12] = Oral bioavailability in Wistar Han rat at 3 mg/kg; type: ADME, organism-based; conditions: in vivo

Sequence of Cytochrome P450 3A4 (P08684 whole entry): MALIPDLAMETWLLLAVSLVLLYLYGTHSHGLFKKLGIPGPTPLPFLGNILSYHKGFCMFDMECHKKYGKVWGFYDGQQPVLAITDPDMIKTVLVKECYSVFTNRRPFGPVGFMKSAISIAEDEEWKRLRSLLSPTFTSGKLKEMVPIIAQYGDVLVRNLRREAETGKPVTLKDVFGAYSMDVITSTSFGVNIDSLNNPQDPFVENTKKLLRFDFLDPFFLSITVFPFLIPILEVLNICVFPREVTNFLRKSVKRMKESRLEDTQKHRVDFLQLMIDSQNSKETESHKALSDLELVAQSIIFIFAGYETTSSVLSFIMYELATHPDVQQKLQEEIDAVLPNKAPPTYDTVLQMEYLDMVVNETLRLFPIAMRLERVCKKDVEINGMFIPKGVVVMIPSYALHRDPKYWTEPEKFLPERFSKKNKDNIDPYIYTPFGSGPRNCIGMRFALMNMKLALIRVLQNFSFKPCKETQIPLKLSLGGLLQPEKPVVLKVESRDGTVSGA
Sequence of Voltage-dependent L-type calcium channel subunit alpha-1C (Q13936 whole entry): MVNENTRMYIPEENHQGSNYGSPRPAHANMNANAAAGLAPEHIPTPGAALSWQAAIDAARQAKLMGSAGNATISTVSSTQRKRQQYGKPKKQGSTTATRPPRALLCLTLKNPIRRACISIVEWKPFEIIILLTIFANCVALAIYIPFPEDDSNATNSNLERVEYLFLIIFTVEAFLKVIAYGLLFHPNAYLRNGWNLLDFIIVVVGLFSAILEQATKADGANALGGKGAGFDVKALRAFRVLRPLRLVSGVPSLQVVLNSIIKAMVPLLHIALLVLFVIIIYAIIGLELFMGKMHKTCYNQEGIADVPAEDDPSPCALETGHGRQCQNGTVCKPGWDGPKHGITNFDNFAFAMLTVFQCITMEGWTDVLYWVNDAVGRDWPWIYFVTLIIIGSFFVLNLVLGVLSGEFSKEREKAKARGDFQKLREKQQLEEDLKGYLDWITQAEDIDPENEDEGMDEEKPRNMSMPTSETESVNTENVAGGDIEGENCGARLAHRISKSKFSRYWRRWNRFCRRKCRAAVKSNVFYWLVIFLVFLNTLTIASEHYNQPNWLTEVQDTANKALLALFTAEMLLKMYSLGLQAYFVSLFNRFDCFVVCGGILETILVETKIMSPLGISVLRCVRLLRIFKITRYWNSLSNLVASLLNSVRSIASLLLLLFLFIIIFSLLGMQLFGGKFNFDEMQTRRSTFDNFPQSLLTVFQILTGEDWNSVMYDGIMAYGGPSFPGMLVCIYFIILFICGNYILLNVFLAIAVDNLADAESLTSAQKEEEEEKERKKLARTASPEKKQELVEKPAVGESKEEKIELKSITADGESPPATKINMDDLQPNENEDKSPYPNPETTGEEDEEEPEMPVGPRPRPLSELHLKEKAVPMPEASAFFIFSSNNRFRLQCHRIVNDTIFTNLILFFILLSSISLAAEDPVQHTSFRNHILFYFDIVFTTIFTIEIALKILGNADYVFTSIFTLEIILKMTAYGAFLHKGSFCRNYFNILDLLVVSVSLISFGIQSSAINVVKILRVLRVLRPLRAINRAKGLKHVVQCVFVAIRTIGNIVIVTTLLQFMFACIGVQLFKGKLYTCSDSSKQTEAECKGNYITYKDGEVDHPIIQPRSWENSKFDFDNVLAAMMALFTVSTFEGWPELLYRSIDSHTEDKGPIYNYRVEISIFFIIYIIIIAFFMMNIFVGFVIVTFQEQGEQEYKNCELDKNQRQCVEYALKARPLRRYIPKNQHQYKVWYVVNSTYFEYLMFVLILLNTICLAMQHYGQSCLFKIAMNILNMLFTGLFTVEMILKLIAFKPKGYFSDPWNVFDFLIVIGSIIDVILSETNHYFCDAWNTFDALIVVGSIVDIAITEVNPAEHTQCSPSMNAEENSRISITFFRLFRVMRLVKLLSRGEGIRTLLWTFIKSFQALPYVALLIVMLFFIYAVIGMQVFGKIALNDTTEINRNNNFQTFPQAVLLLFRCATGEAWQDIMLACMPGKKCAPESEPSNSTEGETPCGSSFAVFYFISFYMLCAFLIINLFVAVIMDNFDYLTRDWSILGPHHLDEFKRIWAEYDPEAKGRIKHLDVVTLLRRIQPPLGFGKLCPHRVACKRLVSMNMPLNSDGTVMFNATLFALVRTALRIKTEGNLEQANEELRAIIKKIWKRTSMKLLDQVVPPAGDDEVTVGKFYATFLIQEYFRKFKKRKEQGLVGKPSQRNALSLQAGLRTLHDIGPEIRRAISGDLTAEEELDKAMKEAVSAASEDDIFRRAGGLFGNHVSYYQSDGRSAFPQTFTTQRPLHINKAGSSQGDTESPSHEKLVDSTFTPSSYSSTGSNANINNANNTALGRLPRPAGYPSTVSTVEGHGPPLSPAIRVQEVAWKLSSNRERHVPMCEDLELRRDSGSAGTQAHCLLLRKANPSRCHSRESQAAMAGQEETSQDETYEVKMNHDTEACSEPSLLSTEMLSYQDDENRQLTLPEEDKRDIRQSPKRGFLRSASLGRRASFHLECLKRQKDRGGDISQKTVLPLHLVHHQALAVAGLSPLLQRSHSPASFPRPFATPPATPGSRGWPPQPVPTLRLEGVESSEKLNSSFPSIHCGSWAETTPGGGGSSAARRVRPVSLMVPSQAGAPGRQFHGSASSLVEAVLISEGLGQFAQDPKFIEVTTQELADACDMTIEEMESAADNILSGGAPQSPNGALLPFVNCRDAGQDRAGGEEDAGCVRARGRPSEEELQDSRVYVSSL
Sequence of Voltage-gated inwardly rectifying potassium channel KCNH2 (Q12809 whole entry): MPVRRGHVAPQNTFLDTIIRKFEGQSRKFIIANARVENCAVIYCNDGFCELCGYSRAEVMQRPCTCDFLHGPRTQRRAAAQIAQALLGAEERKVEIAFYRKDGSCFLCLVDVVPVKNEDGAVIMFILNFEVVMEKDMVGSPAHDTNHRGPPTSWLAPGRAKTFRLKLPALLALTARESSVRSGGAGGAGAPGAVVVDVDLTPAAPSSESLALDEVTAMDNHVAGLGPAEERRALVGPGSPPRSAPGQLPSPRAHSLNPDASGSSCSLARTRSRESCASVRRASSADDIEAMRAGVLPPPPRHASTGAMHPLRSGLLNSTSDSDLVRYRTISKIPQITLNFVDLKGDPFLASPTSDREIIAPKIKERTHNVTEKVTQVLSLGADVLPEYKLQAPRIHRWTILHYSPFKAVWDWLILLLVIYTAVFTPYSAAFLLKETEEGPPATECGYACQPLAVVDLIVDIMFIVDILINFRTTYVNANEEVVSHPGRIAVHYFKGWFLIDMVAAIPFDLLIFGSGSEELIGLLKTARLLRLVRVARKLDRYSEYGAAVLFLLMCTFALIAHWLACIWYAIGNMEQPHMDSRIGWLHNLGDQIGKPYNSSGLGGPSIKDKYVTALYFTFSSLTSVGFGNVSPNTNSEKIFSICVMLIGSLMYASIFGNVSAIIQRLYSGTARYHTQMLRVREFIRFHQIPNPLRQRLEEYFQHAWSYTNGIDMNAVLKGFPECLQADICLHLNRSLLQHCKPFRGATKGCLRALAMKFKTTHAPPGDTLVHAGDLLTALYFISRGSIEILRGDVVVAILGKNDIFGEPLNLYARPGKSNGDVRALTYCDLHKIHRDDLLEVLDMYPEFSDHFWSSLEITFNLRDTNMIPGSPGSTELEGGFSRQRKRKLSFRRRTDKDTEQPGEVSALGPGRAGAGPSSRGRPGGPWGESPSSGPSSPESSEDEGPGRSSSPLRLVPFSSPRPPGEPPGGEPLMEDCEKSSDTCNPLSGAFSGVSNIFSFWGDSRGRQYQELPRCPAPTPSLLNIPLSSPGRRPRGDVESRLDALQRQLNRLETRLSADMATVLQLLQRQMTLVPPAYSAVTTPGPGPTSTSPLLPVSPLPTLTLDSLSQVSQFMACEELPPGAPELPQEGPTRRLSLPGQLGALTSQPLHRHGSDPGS
Sequence of Cytochrome P450 2C9 (P11712 whole entry): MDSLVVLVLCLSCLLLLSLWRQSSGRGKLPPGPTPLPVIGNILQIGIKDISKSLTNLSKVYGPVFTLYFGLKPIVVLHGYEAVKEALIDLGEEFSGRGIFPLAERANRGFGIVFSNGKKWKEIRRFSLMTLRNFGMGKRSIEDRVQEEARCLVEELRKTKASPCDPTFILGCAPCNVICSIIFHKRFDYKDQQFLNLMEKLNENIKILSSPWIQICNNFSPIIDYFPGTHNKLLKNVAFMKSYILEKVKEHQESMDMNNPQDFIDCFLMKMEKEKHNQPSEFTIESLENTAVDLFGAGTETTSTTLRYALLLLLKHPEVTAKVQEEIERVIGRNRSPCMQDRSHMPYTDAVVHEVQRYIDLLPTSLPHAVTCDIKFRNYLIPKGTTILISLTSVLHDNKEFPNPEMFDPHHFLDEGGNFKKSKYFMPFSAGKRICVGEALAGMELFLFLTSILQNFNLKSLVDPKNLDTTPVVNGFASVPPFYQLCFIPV
Sequence of Cytochrome P450 2D6 (P10635 whole entry): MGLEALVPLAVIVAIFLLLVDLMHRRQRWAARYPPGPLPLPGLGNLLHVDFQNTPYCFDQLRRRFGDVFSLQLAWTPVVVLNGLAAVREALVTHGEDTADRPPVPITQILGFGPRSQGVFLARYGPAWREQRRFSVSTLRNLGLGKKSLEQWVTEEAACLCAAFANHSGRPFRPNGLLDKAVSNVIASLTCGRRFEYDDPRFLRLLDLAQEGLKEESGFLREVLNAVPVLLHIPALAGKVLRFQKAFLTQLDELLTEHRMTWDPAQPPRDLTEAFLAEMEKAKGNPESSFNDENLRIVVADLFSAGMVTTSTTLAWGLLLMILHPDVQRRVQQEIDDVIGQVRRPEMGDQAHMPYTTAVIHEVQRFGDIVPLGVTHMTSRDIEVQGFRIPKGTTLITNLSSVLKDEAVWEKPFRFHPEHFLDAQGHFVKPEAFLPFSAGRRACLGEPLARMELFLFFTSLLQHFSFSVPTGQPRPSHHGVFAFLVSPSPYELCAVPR

| SMILES | Ki (Protein O-GlcNAcase [1]) [µM] | Ki [2] [µM] | Papp (MDR1) [×10⁻⁶ cm/s] | further results |
| --- | --- | --- | --- | --- |
| O[C@H]1[C@H](O)[C@@H](CF)O[C@@H]2SC(N3CCC3)=N[C@H]12 | 0.2 | > 10 |  |  |
| CCNC1=N[C@H]2[C@H](O[C@H](CO)C(F)[C@@H]2O)S1 (some centres undefined) | > 3 | > 10 |  | IC50 [3]: > 30 µM; IC50 [4]: > 30 µM; IC50 [5]: > 30 µM; IC50 (Cytochrome P450 3A4): > 50 µM; IC50 (Cytochrome P450 2D6): > 50 µM; IC50 (Cytochrome P450 2C9): > 50 µM; EC50 [6]: > 30 µM |
| OC[C@H]1O[C@@H]2SC(NCCF)=N[C@@H]2[C@@H](O)[C@@H]1O | 0.0056 | > 10 | 2.2 | EC50 (Protein O-GlcNAcase [7]): 0.509 µM; AUC/dose [8]: 0.903 µM·kg·h/mg; clearance [9]: 33.6 mL/min/kg; half-life [10]: 1.29 h; Vd [11]: 1.33 L/kg; bioavailability [12]: 48.6% |
| OC[C@H]1O[C@@H]2SC(N3CCCCC3)=N[C@@H]2[C@@H](O)[C@@H]1O | 1.8 | > 10 |  |  |
| CN(C)C1=N[C@@H]2C[C@H](O)[C@@H](C(F)F)O[C@@H]2S1 | > 3 | > 10 | 31 |  |
| NC1=N[C@@H]2[C@@H](O)[C@H](O)[C@@H](C(F)F)O[C@@H]2S1 | 0.76 | > 10 | 9.2 | EC50 (Protein O-GlcNAcase [7]): 2.4 µM |
| C=CCN(C)C1=N[C@@H]2[C@@H](O)[C@H](O)[C@@H](CO)O[C@@H]2S1 |  | 4.5 | 0.8 | AUC/dose [8]: 0.538 µM·kg·h/mg; clearance [9]: 45.8 mL/min/kg; half-life [10]: 4.03 h; Vd [11]: 16.1 L/kg; bioavailability [12]: 108% |
| CN(C)C1=N[C@@H]2[C@@H](F)[C@H](O)[C@@H](CO)O[C@@H]2S1 | 0.041 | > 10 |  |  |
| CCCNC1=N[C@@H]2[C@@H](F)[C@H](O)[C@@H](CO)O[C@@H]2S1 | 0.014 | > 10 |  | EC50 (Protein O-GlcNAcase [7]): 0.445 µM; AUC/dose [8]: 0.394 µM·kg·h/mg; clearance [9]: 48.1 mL/min/kg; half-life [10]: 1.69 h; Vd [11]: 1.92 L/kg; bioavailability [12]: 30.1% |

The next lines start with results.

| Ki (Protein O-GlcNAcase [1]) [µM] | Ki [2] [µM] | Papp (MDR1) [×10⁻⁶ cm/s] | SMILES | further results |
| --- | --- | --- | --- | --- |
| 0.05 | > 10 |  | CNC1=N[C@@H]2[C@@H](F)[C@H](O)[C@@H](CF)O[C@@H]2S1 |  |
| > 3 | > 10 |  | NC1=N[C@@H]2C[C@H](O)[C@@H](CO)O[C@@H]2S1 |  |
|  | > 10 |  | OC[C@H]1O[C@@H]2SC(N3CCCC3)=N[C@@H]2[C@@H](O)[C@@H]1O |  |
| 0.072 | > 10 | 2.4 | CC1CN(C2=N[C@@H]3[C@@H](O)[C@H](O)[C@@H](CO)O[C@@H]3S2)C1 |  |
